Measurements published in US20200054653A1, “ACEFAPC FOR THE TREATMENT OF ACETYLCHOLINE-DEPENDENT DISEASES” (LIPTHER, priority 2017, published 2020).
Read-outs that look alike come from different tables or passages of the source.

Experiments:
[1] = biological target: microbial (Streptomyces chromofuscus) phospholipase D (Streptomyces chromofuscus, UniProt Q8KRU5); assay: Acellular incubation of AceFaPC with phospholipase D, acetylcholine detected by mass spectrometry; assay type: biochemical; conditions: Tris-HCl pH 8, one hour at 37° C.
Procedure: Acellular incubation of AceFaPC was performed in the presence of a microbial (Streptomyces chromofuscus) phospholipase D in a Tris-HCl pH 8 (brain pH) buffer for one hour at 37° C. Following incubation, phospholipase D was destroyed by adding ethanol. After centrifugation, the aqueous ethanolic mixture was separated and evaporated to dryness. The residue was dissolved in the mixture 95% acetonitrile/5% ammonium formate and then filtered by centrifugation. Acetylcholine was detected in the solution by mass spectrometry. Acetylcholine was detected on the basis of both its molecular mass (146) and that of its main fragmentation product (87: majority ion corresponding to the radical CH3—COO—CH2—CH2—) (FIG. 2).
In these acellular experiments, two substrates were used considering the lowest unsaturation for acyl in the sn-2 position, namely the oleoyl radical (R2—COO—, FIG. 1): AceOIPC and the highest with the docosahexaenoyl radical: AceDoPC®. For AceOIPC, approximately 5% of the released choline was converted to acetylcholine. For AceDoPC®, this conversion reached 36%. The reasons for this difference are unknown at this stage of the experiment. […]

[2] = tested on: brain lesions after ischemic stroke; conditions: injected into rats after ischemic stroke; cited from earlier work
[3] = rat, cited from earlier work
[4] = tested on: reconstituted blood-brain barrier; conditions: compared with non-esterified DHA or PC-DHA; cited from earlier work

microbial (Streptomyces chromofuscus) phospholipase D, sequence (Q8KRU5 47-556): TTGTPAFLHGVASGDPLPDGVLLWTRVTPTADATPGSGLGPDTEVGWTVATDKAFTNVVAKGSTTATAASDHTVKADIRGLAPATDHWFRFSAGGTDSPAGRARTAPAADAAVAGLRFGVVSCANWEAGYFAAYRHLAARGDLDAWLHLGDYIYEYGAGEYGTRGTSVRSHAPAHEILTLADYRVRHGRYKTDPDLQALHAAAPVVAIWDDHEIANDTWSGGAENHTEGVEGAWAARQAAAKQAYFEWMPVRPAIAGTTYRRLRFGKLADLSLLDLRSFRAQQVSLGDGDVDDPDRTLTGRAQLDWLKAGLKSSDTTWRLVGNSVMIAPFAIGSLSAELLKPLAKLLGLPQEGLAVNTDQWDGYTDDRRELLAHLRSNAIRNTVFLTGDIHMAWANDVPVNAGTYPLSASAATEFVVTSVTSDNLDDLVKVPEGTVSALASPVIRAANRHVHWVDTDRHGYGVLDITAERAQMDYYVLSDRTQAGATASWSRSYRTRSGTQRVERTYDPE

Row | Structure (SMILES) | released choline converted to acetylcholine [1] | spread of brain lesions [2] | radioactivity of AceDoPC in brain, % of the total injected ([3]; after 1 hour) | radioactivity of AceDoPC in brain, % of the total injected ([3]; after 24 hours) | radioactivity of AceDoPC in brain, % of the total injected ([3]; after 48 hours) | passage of a reconstituted blood-brain barrier [4]
1 | CCCCCCCCC=CCCCCCCCC(=O)OC(COC(C)=O)COP(=O)([O-])OCC[N+](C)(C)C (stereo not shown) [AceOIPC] | approximately 5% |  |  |  |  | 
2 | CC/C=C\C/C=C\C/C=C\C/C=C\C/C=C\C/C=C\CCC(=O)O[C@H](COC(C)=O)COP(=O)([O-])OCC[N+](C)(C)C [AceDoPC, 1-acetyl,2-docosahexaenoyl-phosphatidylcholine] | 36% | prevented the spread of brain lesions | 80% | 30% | 10% | promoted
